Test system: GloResponse NFAT-luc2 Jurkat cells
Details: T2 loaded with 100 nM peptide, 18 hours
Procedure: T cell activation assays using GloResponse™ NFAT-luc2 Jurkat cells and peptide loaded T2 target cells were performed according to manufacturer instructions. In short, T2 cells were harvested from continuous cell culture, washed and resuspended in T2 culture medium at a concentration of 3.3×10^6 cells/ml and transferred to 96 well round bottom plates (Corning Costar®, Cat. Nr. 3799). Peptide in DMSO, 0.5% TFA was added to a final concentration of 100 nM and the suspension incubated for 2 to 3 hours at 37° C., 5% CO2. bsTCR formulated in PBS was diluted in T2 culture medium to desired concentration and 25 μl of the respective dilution was distributed to white 96 well flat bottom plates (Brand, Cat. Nr. 781965). […] After the incubation period 75 μl of Bio-Glo™ luciferase reagent was added to each well and the plates incubated for minutes at 300 rpm on a plate shaker in the dark before reading luminescence at a 0.5 second integration time with a Synergy2 plate reader (Biotek). Luminescence as measured in relative light units (RLU) was converted to fold induction for each well by dividing measured RLU through those of control wells.
T2 cells were loaded separately with respective peptides from the positional scanning library at a concentration of 100 nM and subsequently co-incubated with Jurkats and different bsTCR concentrations for 18 hours before readout.

With ALYNVLAKV the “T cell activation (luminescence fold induction over background)” value was “reactive in the reporter assay”.

Reference: US12188932B2, “Method for high throughput peptide-MHC affinity screening for TCR ligands” (priority 2018, dated 2025)
